Assays:
medaka Esr1 (mEsr1) [1] = target: T1, medaka Esr1 (mEsr1) (Oryzias latipes, UniProt P50241); assay: cell-based; parameters: species or system Japanese medaka (Oryzias latipes)
T1 sequence (P50241 1-620): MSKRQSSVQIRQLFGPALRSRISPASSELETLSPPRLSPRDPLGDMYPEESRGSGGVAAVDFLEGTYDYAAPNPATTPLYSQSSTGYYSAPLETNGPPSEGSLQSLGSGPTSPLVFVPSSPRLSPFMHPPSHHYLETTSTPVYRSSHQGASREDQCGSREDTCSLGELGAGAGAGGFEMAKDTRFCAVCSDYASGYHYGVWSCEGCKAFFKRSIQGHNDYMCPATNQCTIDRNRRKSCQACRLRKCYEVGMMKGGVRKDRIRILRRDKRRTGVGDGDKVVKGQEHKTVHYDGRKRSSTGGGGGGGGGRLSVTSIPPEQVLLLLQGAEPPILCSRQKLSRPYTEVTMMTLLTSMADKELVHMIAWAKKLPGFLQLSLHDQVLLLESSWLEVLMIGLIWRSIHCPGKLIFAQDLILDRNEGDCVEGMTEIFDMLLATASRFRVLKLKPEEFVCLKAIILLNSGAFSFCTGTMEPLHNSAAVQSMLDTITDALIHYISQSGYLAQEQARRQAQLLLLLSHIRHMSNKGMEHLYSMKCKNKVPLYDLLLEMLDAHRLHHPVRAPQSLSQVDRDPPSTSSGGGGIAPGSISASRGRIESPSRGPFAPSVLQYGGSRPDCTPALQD

medaka Esr1 (mEsr1) [2] = target: T1, medaka Esr1 (mEsr1); assay: Medaka Esr1 reporter gene assay, antagonist assay; format: cell-based, Japanese medaka (Oryzias latipes); details: E2 spiked at 1.0 nM (B); MAC = 1.0 × 10^−4 M
medaka ARβ (mArβ) [3] = target: T2, medaka ARβ (mArβ) (Oryzias latipes, UniProt D1MV73); assay: Medaka ARβ reporter gene assay, agonist assay; format: cell-based, Japanese medaka (Oryzias latipes)
T2 sequence (D1MV73 1-744): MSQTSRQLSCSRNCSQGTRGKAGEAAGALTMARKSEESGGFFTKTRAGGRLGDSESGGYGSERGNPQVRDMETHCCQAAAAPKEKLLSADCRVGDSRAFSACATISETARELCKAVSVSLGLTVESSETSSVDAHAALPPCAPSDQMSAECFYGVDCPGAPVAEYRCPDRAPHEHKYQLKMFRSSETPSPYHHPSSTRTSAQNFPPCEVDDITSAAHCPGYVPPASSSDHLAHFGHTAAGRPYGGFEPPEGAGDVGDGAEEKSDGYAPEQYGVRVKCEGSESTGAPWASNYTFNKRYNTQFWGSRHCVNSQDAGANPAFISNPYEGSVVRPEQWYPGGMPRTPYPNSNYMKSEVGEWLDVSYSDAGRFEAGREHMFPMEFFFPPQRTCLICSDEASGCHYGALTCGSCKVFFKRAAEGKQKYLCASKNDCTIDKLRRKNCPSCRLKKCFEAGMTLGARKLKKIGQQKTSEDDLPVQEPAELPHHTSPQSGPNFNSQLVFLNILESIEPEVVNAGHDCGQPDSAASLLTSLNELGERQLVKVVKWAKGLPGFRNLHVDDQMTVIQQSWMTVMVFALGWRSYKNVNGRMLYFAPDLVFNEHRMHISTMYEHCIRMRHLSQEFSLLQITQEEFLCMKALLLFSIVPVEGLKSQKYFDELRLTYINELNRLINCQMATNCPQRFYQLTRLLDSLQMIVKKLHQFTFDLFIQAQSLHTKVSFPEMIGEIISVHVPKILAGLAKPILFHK

medaka ARβ (mArβ) [4] = target: T2, medaka ARβ (mArβ); assay: Medaka ARβ reporter gene assay, antagonist assay; format: cell-based, Japanese medaka (Oryzias latipes)
[5] = test system: Japanese medaka (Oryzias latipes); assay: Fish Short‐Term Reproduction Assay; format: in vivo; details: for GSI Female / GSI Male / HSI Female / HSI Male / Length Female / Length Male / Weight Female / Weight Male: completion of exposure
[6] = measured concentration 0.0943 mg/L
[7] = measured concentration 0.939 mg/L
[8] = measured concentration 9.53 mg/L

## O=C(c1ccc(O)cc1O)c1ccc(O)cc1O [BP2, Benzophenone‐2]
Medaka Esr1 (mEsr1) [1]; mode of action in which EC50 or PC10 was obtained in RGA
  In vitro positive: Esr: Esr
Medaka Esr1 (mEsr1) [1]; read-out: Agonistic activity EC50, HEK293 cells
  EC50: 1.6 µM
Medaka Esr1 (mEsr1) [2]
  Antagonistic activity: NE (MAC = 1.0 × 10^−4 M)^(B)
Medaka ARβ (mArβ) [3]; HepG2 cells, concentration with 10% of maximum activity of 11KT
  Agonistic activity PC10: PC10 = 1.2 × 10^−5 M
Medaka ARβ (mArβ) [3]; only PC10 and not EC50 could be estimated
  Agonistic activity on mArβ (in words): positive agonistic activity
Medaka ARβ (mArβ) [4]; mode of action in which IC50 or IC30 was obtained in RGA
  In vitro positive: aAr: aAr
Medaka ARβ (mArβ) [4]; read-out: Antagonistic activity IC50, 11‐KT spiked at 50 nM (D)
  IC50: 40 µM
Medaka ARβ (mArβ) [4]; transcriptional activity on mArβ by 11KT
  Antagonistic activity on mArβ (in words): inhibitory potency
[5]; 0.0943 mg/L measured, 21 d
  Fertility rate: 95 ± 2.3%
  Hepatic VTG, female: 354 ± 105 ng/mg‐liver
  Hepatic VTG, male: 0.5 ± 0.0 ng/mg‐liver
  Mortality: 0.0%
  Mortality, number of dead fish: 0
  Number of fertilized eggs (per female per day): 15 ± 2.2
  Number of total eggs (per female per day): 15 ± 2.3
  SSC female (joint plates with papillary processes): 0 ± 0
  SSC male (joint plates with papillary processes): 73 ± 7.0
[5]; 0.939 mg/L measured, 21 d
  Fertility rate: 94 ± 2.5%
  Hepatic VTG, female: 398 ± 230 ng/mg‐liver
  Hepatic VTG, male: 0.9 ± 0.5 ng/mg‐liver
  Mortality: 4.2%
  Mortality, number of dead fish: 1
  Number of fertilized eggs (per female per day): 14 ± 2.3
  Number of total eggs (per female per day): 15 ± 2.7
  SSC female (joint plates with papillary processes): 0 ± 0
  SSC male (joint plates with papillary processes): 77 ± 20
[5]; 9.53 mg/L measured, 21 d
  Hepatic VTG, female: 449 ± 114 ng/mg‐liver
  Mortality: 0.0%
  Mortality, number of dead fish: 0
  Number of fertilized eggs (per female per day): 13 ± 1.7
  Number of total eggs (per female per day): 14 ± 1.7
  SSC female (joint plates with papillary processes): 0 ± 0
  SSC male (joint plates with papillary processes): 79 ± 8.4
[5]; 9.53 mg/L measured, 21 d, sig. ↑ vs control
  Hepatic VTG, male: 393 ± 306 ng/mg‐liver
[5]; 9.53 mg/L measured, 21 d, sig. ↓ vs control
  Fertility rate: 90 ± 3.5%
[5]; 21 d
  LOEC, elevated hepatic VTG in males: 9.53 mg/L
[5]; LOEC on VTG induction in males
  LOECmVTG: 9,530 μg/L
[5]; LOEC on reproduction (fecundity and/or fertility)
  LOECREPRO: 9,530 μg/L
[5]; concentrations without overt toxicity
  LOECREPRO (reduction in fecundity or fertility): 9,530 μg/L
[5]; lowest observed effect concentration on mortality
  LOECTOX: ND (>9,530) μg/L
[5]; [6]
  GSI Female: 6.9 ± 0.3%
  GSI Male: 1.07 ± 0.14%
  HSI Female: 2.8 ± 0.87%
  HSI Male: 1.8 ± 0.37%
  Length Female: 30.2 ± 0.4 mm
  Length Male: 30.8 ± 1.2 mm
  Weight Female: 296 ± 16 mg
  Weight Male: 291 ± 27 mg
[5]; [7]
  GSI Female: 7.6 ± 1.2%
  GSI Male: 0.69 ± 0.15%
  HSI Female: 3.1 ± 0.68%
  HSI Male: 1.9 ± 0.24%
  Length Female: 30.3 ± 1.0 mm
  Length Male: 30.6 ± 1.1 mm
  Weight Female: 304 ± 48 mg
  Weight Male: 290 ± 32 mg
[5]; [8]
  GSI Female: 8.6 ± 0.4%
  GSI Male: 0.79 ± 0.23%
  HSI Female: 3.5 ± 0.58%
  HSI Male: 2.0 ± 0.55%
  Length Female: 30.4 ± 0.5 mm
  Length Male: 31.9 ± 1.1 mm
  Weight Female: 295 ± 8.0 mg
  Weight Male: 327 ± 34 mg
